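Each compound was tested at five concentrations against cells in 96-well plates for 48 hours. Abbreviation: GI50, concentration required for 50% inhibition of growth.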 Calls of active or inactive are those of the source. No stated cut-off is given here; in the data, active = GI50 up to about 1.1 µM and inactive = higher.
How the values were obtained:
Assay in all cases: NCI anticancer screen, dose series, 48 h
SF-268 = system: SF-268
CCRF-CEM = system: CCRF-CEM
KM12 = system: KM12
SF-295 = system: SF-295
SW-620 = system: SW-620
SK-MEL-5 = system: SK-MEL-5
NCI-H522 = system: NCI-H522
NCI/ADR-RES = system: NCI/ADR-RES
SNB-19 = system: SNB-19
UACC-62 = system: UACC-62
HCT-116 = system: HCT-116
UO-31 = system: UO-31
NCI-H23 = system: NCI-H23
SN12C = system: SN12C
LOX IMVI = system: LOX IMVI
U-251 = system: U-251
Hs-578T = system: Hs-578T
HCC 2998 = system: HCC 2998
SF-539 = system: SF-539
MDA-N = system: MDA-N

Compound | GI50 (SF-268) | GI50 (CCRF-CEM) | GI50 (KM12) | GI50 (SF-295) | GI50 (SW-620) | GI50 (SK-MEL-5) | GI50 (NCI-H522) | GI50 (NCI/ADR-RES) | GI50 (SNB-19) | GI50 (UACC-62) | GI50 (HCT-116) | GI50 (UO-31) | GI50 (NCI-H23) | GI50 (SN12C) | GI50 (LOX IMVI) | GI50 (U-251) | GI50 (Hs-578T) | GI50 (HCC 2998) | GI50 (SF-539) | GI50 (MDA-N)
CC1OC(OC2C(OC(=O)[C@]34CCC(C)(C)C[C@H]3C3=CC[C@@H]5[C@@]6(C)CC[C@H](OC7OC(C(=O)O)C(O)C(O)C7O)C(C)(C)[C@@H]6CC[C@@]5(C)[C@]3(C)C[C@H]4O)OCC(O)C2O)C(O)C(O)C1OC1OCC(OC2OCC(O)C(O)C2O)C(O)C1O (stereo partly drawn) | 12.6 µM (inactive) | > 10 µM (inactive) | 3.61 µM (inactive) | 10.2 µM (inactive) | 10.9 µM (inactive) | 13.9 µM (inactive) | 4.94 µM (inactive) | 11.1 µM (inactive) | 5.51 µM (inactive) | 11 µM (inactive) | 4.66 µM (inactive) | 2.13 µM (inactive) | 2.14 µM (inactive) | 2.42 µM (inactive) | 11.9 µM (inactive) | 7.85 µM (inactive) | 19.1 µM (inactive) | 1.53 µM (inactive) | – | –
NS(=O)(=O)c1nnc(NS(=O)(=O)c2ccccc2[N+](=O)[O-])s1 | > 100 µM (inactive) | – | > 100 µM (inactive) | > 100 µM (inactive) | > 100 µM (inactive) | > 100 µM (inactive) | > 100 µM (inactive) | > 100 µM (inactive) | > 100 µM (inactive) | > 100 µM (inactive) | > 100 µM (inactive) | > 100 µM (inactive) | > 100 µM (inactive) | – | – | > 100 µM (inactive) | > 100 µM (inactive) | > 100 µM (inactive) | > 100 µM (inactive) | –
CC(=O)N1C(Nc2ccccc2)CCN1c1ccccc1 (stereo not drawn) | 3.54 µM (inactive) | > 10 µM (inactive) | – | 3.96 µM (inactive) | 5.64 µM (inactive) | > 10 µM (inactive) | > 10 µM (inactive) | 9.89 µM (inactive) | > 10 µM (inactive) | – | > 10 µM (inactive) | 4.45 µM (inactive) | > 10 µM (inactive) | > 10 µM (inactive) | > 10 µM (inactive) | – | > 10 µM (inactive) | > 10 µM (inactive) | 5.19 µM (inactive) | –
O=C(O)c1ccc2c(c1)Cc1cc([N+](=O)[O-])ccc1-2 | > 100 µM (inactive) | 21.6 µM (inactive) | > 100 µM (inactive) | 90.8 µM (inactive) | > 100 µM (inactive) | > 100 µM (inactive) | > 100 µM (inactive) | > 100 µM (inactive) | > 100 µM (inactive) | > 100 µM (inactive) | > 100 µM (inactive) | 93.1 µM (inactive) | > 100 µM (inactive) | > 100 µM (inactive) | > 100 µM (inactive) | > 100 µM (inactive) | 76.9 µM (inactive) | > 100 µM (inactive) | > 100 µM (inactive) | –
CCc1n[nH]c(=O)n1NC(=O)c1ccccc1C(=O)O | > 100 µM (inactive) | > 100 µM (inactive) | > 100 µM (inactive) | > 100 µM (inactive) | > 100 µM (inactive) | > 100 µM (inactive) | > 100 µM (inactive) | > 100 µM (inactive) | > 100 µM (inactive) | > 100 µM (inactive) | > 100 µM (inactive) | > 100 µM (inactive) | > 100 µM (inactive) | > 100 µM (inactive) | > 100 µM (inactive) | > 100 µM (inactive) | – | > 100 µM (inactive) | > 100 µM (inactive) | > 100 µM (inactive)
CC(C)CCC[C@@H](C)[C@H]1CC[C@H]2C3=C[C@H](OS(=O)(=O)O)[C@@]4(O)C[C@@H](O)CC[C@]4(C)[C@@]3(O)CC[C@]12C | > 100 µM (inactive) | 49.2 µM (inactive) | 84.5 µM (inactive) | > 100 µM (inactive) | > 100 µM (inactive) | > 100 µM (inactive) | > 100 µM (inactive) | > 100 µM (inactive) | > 100 µM (inactive) | > 100 µM (inactive) | 98.9 µM (inactive) | > 100 µM (inactive) | > 100 µM (inactive) | > 100 µM (inactive) | > 100 µM (inactive) | > 100 µM (inactive) | – | > 100 µM (inactive) | > 100 µM (inactive) | > 100 µM (inactive)
CC(C)(C)OC/C=C(/CO)[C@@H]1C=C[C@H](O)C1 | > 100 µM (inactive) | > 100 µM (inactive) | > 100 µM (inactive) | > 100 µM (inactive) | > 100 µM (inactive) | – | – | > 100 µM (inactive) | > 100 µM (inactive) | > 100 µM (inactive) | > 100 µM (inactive) | > 100 µM (inactive) | > 100 µM (inactive) | > 100 µM (inactive) | – | > 100 µM (inactive) | – | > 100 µM (inactive) | > 100 µM (inactive) | > 100 µM (inactive)
O=C(Nc1nccs1)NS(=O)(=O)n1cnc2ccccc21 | > 100 µM (inactive) | > 100 µM (inactive) | > 100 µM (inactive) | > 100 µM (inactive) | > 100 µM (inactive) | > 100 µM (inactive) | > 100 µM (inactive) | > 100 µM (inactive) | > 100 µM (inactive) | > 100 µM (inactive) | > 100 µM (inactive) | > 100 µM (inactive) | > 100 µM (inactive) | > 100 µM (inactive) | – | > 100 µM (inactive) | > 100 µM (inactive) | > 100 µM (inactive) | > 100 µM (inactive) | –
CC(C)CCNC(=O)c1ccc(CNC(=O)/C=C/c2ccc(-c3ccccc3[N+](=O)[O-])o2)cc1 | 18.6 µM (inactive) | 12.2 µM (inactive) | 32.5 µM (inactive) | 42.7 µM (inactive) | 41.5 µM (inactive) | 18.1 µM (inactive) | – | 28.2 µM (inactive) | 22.7 µM (inactive) | 16 µM (inactive) | 34.2 µM (inactive) | 76.7 µM (inactive) | 82.8 µM (inactive) | > 100 µM (inactive) | > 100 µM (inactive) | 56.8 µM (inactive) | – | > 100 µM (inactive) | – | 89.5 µM (inactive)
CC(=O)Nc1ccc(SC#N)c2c(NC(C)=O)cccc12 | 98.4 µM (inactive) | 30.3 µM (inactive) | > 66.8 µM (inactive) | > 100 µM (inactive) | 43.1 µM (inactive) | > 100 µM (inactive) | > 47.6 µM (inactive) | – | > 100 µM (inactive) | 78.3 µM (inactive) | > 86.3 µM (inactive) | > 95.5 µM (inactive) | > 100 µM (inactive) | > 100 µM (inactive) | 56.4 µM (inactive) | > 100 µM (inactive) | – | > 100 µM (inactive) | > 100 µM (inactive) | –
NC(=O)c1cn(C2OC(CO)C(O)C2O)c2nc[n+]([O-])c(N)c12 (stereo not drawn) | 0.23 µM (active) | 0.1 µM (active) | 0.153 µM (active) | 0.262 µM (active) | 0.0409 µM (active) | 0.0333 µM (active) | 1.36 µM (inactive) | 0.107 µM (active) | 0.542 µM (active) | 0.12 µM (active) | 0.0206 µM (active) | 0.382 µM (active) | 0.121 µM (active) | 0.0912 µM (active) | 0.104 µM (active) | 0.285 µM (active) | 0.951 µM (active) | – | 0.321 µM (active) | –
Cc1cccc(C)c1N1C(=O)C(=O)C(c2nc3ccccc3s2)/C(=N/NC(=O)c2ccccc2O)C1=O (stereo not drawn) | 6.75 µM (inactive) | 4.8 µM (inactive) | 35.2 µM (inactive) | 33.3 µM (inactive) | 22.4 µM (inactive) | 16.2 µM (inactive) | 8.77 µM (inactive) | – | 10.7 µM (inactive) | 2.08 µM (inactive) | 10.3 µM (inactive) | 4.78 µM (inactive) | 7.38 µM (inactive) | 18.4 µM (inactive) | 24.4 µM (inactive) | 20.6 µM (inactive) | – | 24.6 µM (inactive) | 6.87 µM (inactive) | –
CC1C(c2ccccc2)O[B-](F)(c2ccccc2)[NH+]1C (stereo not drawn) | > 100 µM (inactive) | > 100 µM (inactive) | – | > 100 µM (inactive) | > 100 µM (inactive) | > 100 µM (inactive) | – | > 100 µM (inactive) | > 100 µM (inactive) | > 100 µM (inactive) | > 100 µM (inactive) | > 100 µM (inactive) | > 100 µM (inactive) | > 100 µM (inactive) | > 100 µM (inactive) | > 100 µM (inactive) | – | > 100 µM (inactive) | – | > 100 µM (inactive)
Nc1nc(N)c2cc(S(=O)(=O)c3ccc4ccccc4c3)ccc2n1 | 5.22 µM (inactive) | – | 9.95 µM (inactive) | 1.55 µM (inactive) | – | 11.9 µM (inactive) | 3.9 µM (inactive) | 70.5 µM (inactive) | 6.03 µM (inactive) | 2.57 µM (inactive) | 0.495 µM (active) | 2.04 µM (inactive) | 4.27 µM (inactive) | 7.69 µM (inactive) | 0.766 µM (active) | 3.24 µM (inactive) | 8.39 µM (inactive) | > 100 µM (inactive) | 3.33 µM (inactive) | –
O=C1Cc2c([nH]c3ccc(Br)cc23)-c2cc(Br)ccc2N1 | > 100 µM (inactive) | > 100 µM (inactive) | > 100 µM (inactive) | > 100 µM (inactive) | > 100 µM (inactive) | > 100 µM (inactive) | – | > 100 µM (inactive) | > 100 µM (inactive) | > 100 µM (inactive) | – | > 100 µM (inactive) | > 100 µM (inactive) | – | > 100 µM (inactive) | > 100 µM (inactive) | – | > 100 µM (inactive) | > 100 µM (inactive) | –
